Measurements from patent publication US8987193B2, “Nisin derivatives and the use thereof” (University College Cork—National University of Ireland, Cork, priority 2008, dated 2015).
Ends that are not written are not given here.

Tests used:
Assay in all cases: Deferred antagonism assay
Assay type in all cases: cell-based
Parameters in all cases: key: −, no inhibition; (+), clear zone directly above the colony; +, 1-5 mm zone; ++, 6-10 mm zone; +++, <10 mm zone
[1] = tested on: Listeria monocytogenes 33028; settings: nisin strain; L. monocytogenes 33028
Procedure: (§1) Deferred antagonism assays were performed by replicating strains on GM17 or GM17 x-gal agar plates and allowing them to grow overnight before overlaying with either GM17/BHI/TS/MH agar (0.75% w/v agar) seeded with the appropriate indicator strain. Zone size was calculated as the diameter of the zone of clearing minus the diameter of bacterial growth (5 mm) For higher throughput screening of N20PXX, XM21VX, XXK22T and XXX banks deferred antagonism assays were performed by replicating strains using a 96 pin replicator (Boekel) or spotting 5 μl of a fresh overnight culture on GM17 agar plates and allowing them to grow overnight. […] Additional sets of indicators were employed to further assess/reassess the bioactivity of a number of strains. […] For well-diffusion assays molten agar was cooled to 48° C. and seeded with the appropriate indicator strain. The inoculated medium was rapidly transferred into sterile Petri plates in 50 ml volumes, allowed to solidify and dried. Wells (4.6 mm in diameter) were then made in the seeded plates. Purified nisin and mutant nisins were resuspended in 0.005% acetic acid, serially diluted, 50 μl volumes were dispensed into the aforementioned wells and the plates incubated at 37° C. overnight. Bioactivity was expressed as arbitrary units/ml (AU/ml) and calculated as the reciprocal of the highest dilution that gave a definite zone multiplied by the conversion factor (i.e. 20 when 50 μl was used) (Ryan et al., 1996).

[2] = tested on: Listeria monocytogenes 33015; settings: nisin strain; L. monocytogenes 33015
Procedure: as §1

[3] = tested on: Listeria monocytogenes 33068; settings: nisin strain; L. monocytogenes 33068
Procedure: as §1

[4] = tested on: Listeria monocytogenes F6854; settings: nisin strain; L. monocytogenes F6854
Procedure: as §1

Listeria innocua CLIP = settings: nisin strain
Procedure: as §1

Substance | Activity score (zone) [1] | Activity score (zone) [2] | Activity score (zone) [3] | Activity score (zone) [4] | Activity score (zone) (Listeria innocua CLIP)
NisinA K22A (ITSISLCTPGCKTGALMGCNMATATCHCSIHVSK; not fully specified; also: lantibiotic: lanthionine rings and dehydro residues not placed; UniProt P13068 24-57, looked up, variant K22A) [nisin A derivative, hinge substitution K22A] | + (+, 1-5 mm zone) | + (+, 1-5 mm zone) | − | + (+, 1-5 mm zone) | + (+, 1-5 mm zone)
NisinA M21G (ITSISLCTPGCKTGALMGCNGKTATCHCSIHVSK; not fully specified; also: lantibiotic: lanthionine rings and dehydro residues not placed; UniProt P13068 24-57, looked up, variant M21G) [nisin A derivative, hinge substitution M21G] | − | − | − | − | + (+, 1-5 mm zone)
NisinA M21I (ITSISLCTPGCKTGALMGCNIKTATCHCSIHVSK; not fully specified; also: lantibiotic: lanthionine rings and dehydro residues not placed; UniProt P13068 24-57, looked up, variant M21I) [nisin A derivative, hinge substitution M21I] | + (+, 1-5 mm zone) | + (+, 1-5 mm zone) | − | + (+, 1-5 mm zone) | −
NisinA M21S (ITSISLCTPGCKTGALMGCNSKTATCHCSIHVSK; not fully specified; also: lantibiotic nisin: dehydrated residues and thioether rings not placed; UniProt P13068 24-57, looked up, variant M21S) [nisin A derivative, hinge substitution M21S] | ++ (++, 6-10 mm zone) | + (+, 1-5 mm zone) | + (+, 1-5 mm zone) | + (+, 1-5 mm zone) | + (+, 1-5 mm zone)
